Experimental findings from patent US20240287172A1, “PROTEIN BINDERS TO IRHOM2 EPITOPES” (SCIRHOM GMBH, priority 2019, published 2024) are described below.

The test system of test [1] is PMA-induced release of endogenous HB-EGF from PBMCs from healthy donors. Briefly: ELISA-based HB-EGF release assay, PMA-induced, PBMCs from healthy donors. The test is classed as cell-based. The note with it: Homo sapiens, PBMC; PMA 25 ng/ml, 6 hours; recombinant murine antibodies and IgG at 1 μg/ml; Batimastat at 10 μM. On the procedure: (§1) In brief, on day 1, Nunc black MaxiSorp® 96-well plates (Thermo Fisher Scientific, USA) were coated overnight with 100 μl per well of mouse anti-human HB-EGF capture antibody (provided as part of the DuoSet ELISA kit) at 4 μg/ml TBS at 4° C. On day 2, the capture antibody solution was removed and MaxiSorp® plates were blocked with 300 μl per well of TBS, 1% BSA at room temperature for 3 hours. Meanwhile, 80,000 PBMC from healthy donors (STEMCELL Technologies, Canada) cells in 80 μl of normal growth medium were seeded in each well of Greiner CELLSTAR V-bottom 96-well plates (Thermo Fisher Scientific, USA) and pre-incubated with 20 μl per well of standard growth medium supplemented with Batimastat (BB94, Abcam, UK) at 50 μM as positive control (for a final concentration of 10 μM in the resulting 100 μl sample volume), mouse IgG antibody (Thermo Fisher Scientific, USA) at 5 μg/ml as isotype control (for a final concentration of 1 μg/ml in the resulting 100 μl sample volume) or antibodies of the invention at 5 μg/ml (for a final concentration of 1 μg/ml in the resulting 100 μl sample volume) at 37° C., 5% CO2 for 30 minutes. […] Using an infinite M1000 (Tecan Group, Switzerland) microplate reader, the fluorescence of each well was collected at an excitation wavelength of 435 nm and an emission wavelength of 555 nm.
(ELISA stands for enzyme-linked immunosorbent assay.)

Test [2] has as its system PMA-induced release of endogenous HB-EGF from PBMCs from patients suffering from rheumatoid arthritis. Briefly: ELISA-based HB-EGF release assay, PMA-induced, PBMCs from RA-patients. The test is classed as cell-based. The following applies: PBMC; PMA 25 ng/ml, 6 hours; chimeric antibodies (CHO) and human IgG at 1 μg/ml; Batimastat at 10 μM. The procedure:
as §1, with “well of rat anti-human HB-EGF” for “well of mouse anti-human HB-EGF”, “kit) at 2 μg/ml TBS” for “kit) at 4 μg/ml TBS”, “PBMC from patients suffering from rheumatoid arthritis (STEMCELL Technologies,” for “PBMC from healthy donors (STEMCELL Technologies,”, “sample volume), human IgG antibody” for “sample volume), mouse IgG antibody”

The inhibition is the change of the read-out against control, counted positive when it falls.

Each structure is given as a SMILES string.

Consider `CNC(=O)[C@H](Cc1ccccc1)NC(=O)[C@H](CC(C)C)[C@H](CSc1cccs1)C(=O)NO` [Batimastat], for which the inhibition at 10 µM in test [1] turned out to be 94.9%; in test [2] it was 102%.
